Assay results reported in the NIST ThermoML archive (doi:10.1021/je060158k).
Numbers after ± are expanded uncertainties.

Conditions: 100 kPa, Liquid, Capillary tube (Ostwald / Ubbelohde) method

SMILES: CCCCCCCI [1-iodoheptane]
- kinematic viscosity (296.35 K): 1.18e-06 ± 2.6e-08 m2/s
- kinematic viscosity (297.2 K): 1.17e-06 ± 2.6e-08 m2/s
- kinematic viscosity (303.5 K): 1.06e-06 ± 2.4e-08 m2/s
- kinematic viscosity (313.2 K): 9.24e-07 ± 2.1e-08 m2/s
- kinematic viscosity (318.15 K): 8.67e-07 ± 1.9e-08 m2/s
- kinematic viscosity (323.15 K): 8.12e-07 ± 1.8e-08 m2/s
- kinematic viscosity (328.15 K): 7.66e-07 ± 1.7e-08 m2/s
- kinematic viscosity (333.15 K): 7.25e-07 ± 1.6e-08 m2/s
- kinematic viscosity (338.15 K): 6.87e-07 ± 1.5e-08 m2/s
- kinematic viscosity (343.15 K): 6.53e-07 ± 1.5e-08 m2/s
- kinematic viscosity (348.15 K): 6.2e-07 ± 1.4e-08 m2/s
- kinematic viscosity (353.15 K): 5.91e-07 ± 1.3e-08 m2/s
- kinematic viscosity (363.15 K): 5.41e-07 ± 1.2e-08 m2/s
- kinematic viscosity (368.15 K): 5.17e-07 ± 1.2e-08 m2/s
- kinematic viscosity (373.15 K): 4.98e-07 ± 1.1e-08 m2/s
- kinematic viscosity (378.15 K): 4.76e-07 ± 1.1e-08 m2/s
- kinematic viscosity (383.15 K): 4.58e-07 ± 1e-08 m2/s
- kinematic viscosity (393.15 K): 4.24e-07 ± 9.6e-09 m2/s
- kinematic viscosity (403.15 K): 3.96e-07 ± 8.9e-09 m2/s
- kinematic viscosity (413.15 K): 3.7e-07 ± 8.4e-09 m2/s
- kinematic viscosity (423.15 K): 3.46e-07 ± 7.8e-09 m2/s

SMILES: CCCCCCI [1-iodohexane]
- kinematic viscosity (297.25 K): 9.1e-07 ± 1.9e-08 m2/s
- kinematic viscosity (298.15 K): 9.03e-07 ± 1.9e-08 m2/s
- kinematic viscosity (298.25 K): 9e-07 ± 1.9e-08 m2/s
- kinematic viscosity (300.25 K): 8.74e-07 ± 1.9e-08 m2/s
- kinematic viscosity (318.15 K): 7.01e-07 ± 1.5e-08 m2/s
- kinematic viscosity (319.15 K): 6.89e-07 ± 1.5e-08 m2/s
- kinematic viscosity (323.15 K): 6.63e-07 ± 1.4e-08 m2/s
- kinematic viscosity (328.15 K): 6.26e-07 ± 1.3e-08 m2/s
- kinematic viscosity (333.15 K): 5.97e-07 ± 1.3e-08 m2/s
- kinematic viscosity (338.15 K): 5.68e-07 ± 1.2e-08 m2/s
- kinematic viscosity (343.15 K): 5.39e-07 ± 1.2e-08 m2/s
- kinematic viscosity (348.15 K): 5.18e-07 ± 1.1e-08 m2/s
- kinematic viscosity (358.15 K): 4.74e-07 ± 1e-08 m2/s
- kinematic viscosity (368.15 K): 4.37e-07 ± 9.3e-09 m2/s
- kinematic viscosity (383.15 K): 3.91e-07 ± 8.4e-09 m2/s
- kinematic viscosity (393.15 K): 3.64e-07 ± 7.8e-09 m2/s
- kinematic viscosity (413.15 K): 3.19e-07 ± 6.9e-09 m2/s
- kinematic viscosity (423.15 K): 3.01e-07 ± 6.5e-09 m2/s

SMILES: CCCCCCCCCCl [1-chlorononane]
- kinematic viscosity (296.21 K): 1.68e-06 ± 3.6e-08 m2/s
- kinematic viscosity (300.65 K): 1.57e-06 ± 3.3e-08 m2/s
- kinematic viscosity (313.15 K): 1.3e-06 ± 2.8e-08 m2/s
- kinematic viscosity (318.15 K): 1.21e-06 ± 2.6e-08 m2/s
- kinematic viscosity (323.15 K): 1.13e-06 ± 2.4e-08 m2/s
- kinematic viscosity (328.15 K): 1.07e-06 ± 2.3e-08 m2/s
- kinematic viscosity (333.15 K): 1e-06 ± 2.1e-08 m2/s
- kinematic viscosity (338.15 K): 9.48e-07 ± 2e-08 m2/s
- kinematic viscosity (343.15 K): 8.97e-07 ± 1.9e-08 m2/s
- kinematic viscosity (348.15 K): 8.52e-07 ± 1.8e-08 m2/s
- kinematic viscosity (353.15 K): 8.09e-07 ± 1.7e-08 m2/s
- kinematic viscosity (358.15 K): 7.72e-07 ± 1.6e-08 m2/s
- kinematic viscosity (363.15 K): 7.37e-07 ± 1.6e-08 m2/s
- kinematic viscosity (368.15 K): 7.04e-07 ± 1.5e-08 m2/s
- kinematic viscosity (373.15 K): 6.73e-07 ± 1.4e-08 m2/s
- kinematic viscosity (383.15 K): 6.19e-07 ± 1.3e-08 m2/s
- kinematic viscosity (393.15 K): 5.72e-07 ± 1.2e-08 m2/s
- kinematic viscosity (403.15 K): 5.31e-07 ± 1.1e-08 m2/s
- kinematic viscosity (413.15 K): 4.94e-07 ± 1e-08 m2/s
